{"source": "patent US20220233566A1", "about": "“NOVEL CARBONATE COMPOUND HAVING PYRROLOPYRIMIDINE SKELETON OR PHARMACEUTICALLY ACCEPTABLE SALT THEREOF” (TAIHO PHARMACEUTICAL CO., LTD., priority 2019, published 2022)", "assay_in_all_cases": "Growth suppression activity in human tumor cell line", "assay_type_in_all_cases": "cell-based", "key": {"786-0": {"system": "786-0", "settings": "72 h; Human renal cancer, 786-0, 3 days", "description": "(§1) Human tumor cell lines different in type were suspended in mediums, seeded in individual wells of a multi-well plate and cultured. On the day after initiation of culture, serially diluted solutions of a compound were added. Culture was carried out for further 3 days. Cells were counted by a CellTiter-Glo (manufactured by Promega KK) in accordance with the protocol recommended by Promega KK. Cell viability was calculated in accordance with the equation shown below and the concentration (IC50 (μM)) of the compound at which 50% of cell growth is inhibited was obtained.\n(§2) T: Intensity of light emitted from a well containing a compound\n(§3) C: Intensity of light emitted from a well containing no compound"}, "A172": {"system": "A172", "settings": "A 172, 72 h; Human brain tumor, A172, 3 days", "description": "as §1, §2, §3"}, "BXPC3": {"system": "BXPC3", "settings": "BXPC-3, 72 h; Human pancreatic cancer, BXPC3, 3 days", "description": "as §1, §2, §3"}, "CAPAN2": {"system": "CAPAN2", "settings": "Capan-2, 72 h; Human pancreatic cancer, CAPAN2, 3 days", "description": "as §1, §2, §3"}, "CFPAC1": {"system": "CFPAC1", "settings": "CFPAC-1, 72 h; Human pancreatic cancer, CFPAC1, 3 days", "description": "as §1, §2, §3"}, "COL0792": {"system": "COL0792", "settings": "72 h; Human skin cancer, COL0792, 3 days", "description": "as §1, §2, §3"}, "DLD1": {"system": "DLD1", "settings": "DLD-1, 72 h; Human colorectal cancer, DLD1, 3 days", "description": "as §1, §2, §3"}, "DMS273": {"system": "DMS273", "settings": "DMS-273, 72 h; Human lung cancer, DMS273, 3 days", "description": "as §1, §2, §3"}, "H1703": {"system": "H1703", "settings": "NCI-H1703, 72 h; Human lung cancer, H1703, 3 days", "description": "as §1, §2, §3"}, "H1975": {"system": "H1975", "settings": "NCI-H1975, 72 h; Human lung cancer, H1975, 3 days", "description": "as §1, §2, §3"}, "H2126": {"system": "H2126", "settings": "NCI-H2126, 72 h; Human lung cancer, H2126, 3 days", "description": "as §1, §2, §3"}, "H2170": {"system": "H2170", "settings": "NCI-H2170, 72 h; Human lung cancer, H2170, 3 days", "description": "as §1, §2, §3"}, "H23": {"system": "H23", "settings": "NCI-H23, 72 h; Human lung cancer, H23, 3 days", "description": "as §1, §2, §3"}, "H441": {"system": "H441", "settings": "NCI-H441, 72 h; Human lung cancer, H441, 3 days", "description": "as §1, §2, §3"}, "H460": {"system": "H460", "settings": "NCI-H460, 72 h; Human lung cancer, H460, 3 days", "description": "as §1, §2, §3"}, "H526": {"system": "H526", "settings": "NCI-H526, 72 h; Human lung cancer, H526, 3 days", "description": "as §1, §2, §3"}, "H69": {"system": "H69", "settings": "NCI-H69, 72 h; Human lung cancer, H69, 3 days", "description": "as §1, §2, §3"}, "HCC1806": {"system": "HCC1806", "settings": "72 h; Human breast cancer, HCC1806, 3 days", "description": "as §1, §2, §3"}, "HS746T": {"system": "HS746T", "settings": "72 h, Human stomach cancer, 3 days", "description": "as §1, §2, §3"}, "HT1197": {"system": "HT1197", "settings": "72 h; human bladder cancer, HT1197, 3 days", "description": "as §1, §2, §3"}, "K562": {"system": "K562", "settings": "72 h; Human hematopoietic organ tumor, K562, 3 days", "description": "as §1, §2, §3"}, "MES01": {"system": "MES01", "settings": "72 h; Human lung cancer, MES01, 3 days", "description": "as §1, §2, §3"}, "MIAPACA2": {"system": "MIAPACA2", "settings": "MIA PaCa-2, 72 h; Human pancreatic cancer, MIAPACA2, 3 days", "description": "as §1, §2, §3"}, "MKN45": {"system": "MKN45", "settings": "MKN-45, 72 h; Human stomach cancer, MKN45, 3 days", "description": "as §1, §2, §3"}, "MOLT4": {"system": "MOLT4", "settings": "MOLT-4, 72 h; Human hematopoietic organ tumor, MOLT4, 3 days", "description": "as §1, §2, §3"}, "MV-4-11": {"system": "MV-4-11", "settings": "MV4-11, 72 h; Human hematopoietic organ tumor, MV-4-11, 3 days", "description": "as §1, §2, §3"}, "Mero48a": {"system": "Mero48a", "settings": "72 h, Human lung cancer, 3 days", "description": "as §1, §2, §3"}, "Mero82": {"system": "Mero82", "settings": "72 h; Human lung cancer, Mero82, 3 days", "description": "as §1, §2, §3"}, "Mero83": {"system": "Mero83", "settings": "72 h; Human lung cancer, Mero83, 3 days", "description": "as §1, §2, §3"}, "N87": {"system": "N87", "settings": "72 h; Human stomach cancer, N87, 3 days", "description": "as §1, §2, §3"}, "NUGC3": {"system": "NUGC3", "settings": "NUGC-3, 72 h; Human stomach cancer, NUGC3, 3 days", "description": "as §1, §2, §3"}, "RPMI8226": {"system": "RPMI8226", "settings": "RPMI-8226, 72 h; Human hematopoietic organ tumor, RPMI8226, 3 days", "description": "as §1, §2, §3"}, "SDM103T2": {"system": "SDM103T2", "settings": "72 h; Human lung cancer, SDM103T2, 3 days", "description": "as §1, §2, §3"}, "SW48": {"system": "SW48", "settings": "72 h; Human colorectal cancer, SW48, 3 days", "description": "as §1, §2, §3"}, "SW620": {"system": "SW620", "settings": "SW-620, 72 h; Human colorectal cancer, SW620, 3 days", "description": "as §1, §2, §3"}}, "data": [{"smiles": "Nc1ncnc2c1c(Br)cn2[C@@H]1O[C@H](CO)[C@@H](O)[C@@H]1F", "note": "[Comparative Example 1, (2R,3R,4S,5R)-5-(4-amino-5-bromo-7H-pyrrolo[2,3-d]pyrimidin-7-yl)-4-fluoro-2-(hydroxymethyl) tetrahydrofuran-3-ol]", "values": [{"measurement": "IC50", "setting": "786-0", "result": 220, "unit": "nM"}, {"measurement": "IC50", "setting": "A172", "result": 140, "unit": "nM"}, {"measurement": "IC50", "setting": "BXPC3", "result": 270, "unit": "nM"}, {"measurement": "IC50", "setting": "CAPAN2", "result": 50, "unit": "nM"}, {"measurement": "IC50", "setting": "CFPAC1", "result": 110, "unit": "nM"}, {"measurement": "IC50", "setting": "COL0792", "result": 890, "unit": "nM"}, {"measurement": "IC50", "setting": "DLD1", "result": 50, "unit": "nM"}, {"measurement": "IC50", "setting": "DMS273", "result": 400, "unit": "nM"}, {"measurement": "IC50", "setting": "H1703", "result": 20, "unit": "nM"}, {"measurement": "IC50", "setting": "H1975", "result": 70, "unit": "nM"}, {"measurement": "IC50", "setting": "H2126", "result": 110, "unit": "nM"}, {"measurement": "IC50", "setting": "H2170", "result": 260, "unit": "nM"}, {"measurement": "IC50", "setting": "H23", "result": 50, "unit": "nM"}, {"measurement": "IC50", "setting": "H441", "result": 140, "unit": "nM"}, {"measurement": "IC50", "setting": "H460", "result": 80, "unit": "nM"}, {"measurement": "IC50", "setting": "H526", "result": 170, "unit": "nM"}, {"measurement": "IC50", "setting": "H69", "result": 110, "unit": "nM"}, {"measurement": "IC50", "setting": "HCC1806", "result": 130, "unit": "nM"}, {"measurement": "IC50", "setting": "HS746T", "result": 250, "unit": "nM"}, {"measurement": "IC50", "setting": "HT1197", "result": 130, "unit": "nM"}, {"measurement": "IC50", "setting": "K562", "result": 110, "unit": "nM"}, {"measurement": "IC50", "setting": "MES01", "result": 410, "unit": "nM"}, {"measurement": "IC50", "setting": "MIAPACA2", "result": 70, "unit": "nM"}, {"measurement": "IC50", "setting": "MKN45", "result": 210, "unit": "nM"}, {"measurement": "IC50", "setting": "MOLT4", "result": 60, "unit": "nM"}, {"measurement": "IC50", "setting": "MV-4-11", "result": 30, "unit": "nM"}, {"measurement": "IC50", "setting": "Mero48a", "result": 160, "unit": "nM"}, {"measurement": "IC50", "setting": "Mero82", "result": 460, "unit": "nM"}, {"measurement": "IC50", "setting": "Mero83", "result": 350, "unit": "nM"}, {"measurement": "IC50", "setting": "N87", "result": 30, "unit": "nM"}, {"measurement": "IC50", "setting": "NUGC3", "result": 70, "unit": "nM"}, {"measurement": "IC50", "setting": "RPMI8226", "result": 340, "unit": "nM"}, {"measurement": "IC50", "setting": "SDM103T2", "result": 580, "unit": "nM"}, {"measurement": "IC50", "setting": "SW48", "result": 130, "unit": "nM"}, {"measurement": "IC50", "setting": "SW620", "result": 230, "unit": "nM"}]}]}
